Experimental findings from a melting point compilation (Tetko et al.) are described below.

SMILES strings stand for the structures.

`N#Cc1cccc2c(NC(=O)c3ccccc3)cccc12` displayed a melting point of 211 to 212 °C.

With `Cc1cccc(O)c1C(=O)O`, the melting point was determined as 173 °C. `N#C/C(=N\Nc1cc(Cl)c(Cl)cc1Cl)c1nc2ccccc2s1` displayed a melting point of 214 °C. As for `Cc1cc(-c2ccccc2)nnc1NCCN1CCOCC1`, the melting point amounted to 122 °C.

As to `CCCCNC(=O)c1ccc(Cl)cc1O`, the melting point is 91.5 °C. Compound `CCC1COC(Cn2cncn2)(c2ccc(Cl)cc2Cl)O1` (stereo not drawn) yielded a melting point of 84 °C. `COc1cc(C)c(CCl)cc1CCl` had a melting point of 78 °C. The result for `O=C(O)C1CCC(c2ccc(Cl)cc2)CC1` (stereo not drawn) reads 250 to 255 °C.

The compound `Cc1ccccc1C(C)(C)C` registered a melting point of -50 °C. `c1ccc(-c2cc3ccccn3c2)cc1` registered a melting point of 211 to 214 °C. Take `O=c1[nH]nc(S)n1C1CCCCC1`: the melting point was 190 to 194 °C. Under `COc1ccc(C(=O)c2noc(-c3ccc(Br)cc3)c2S(=O)(=O)c2ccccc2)cc1` stands 150 °C; under `O=C(C=CC(=O)Oc1ccccc1)Oc1ccccc1`, 73 °C. For the compound `NNC(=O)COc1ccc(Cl)cc1Cl`, the melting point is 153 to 157 °C. Regarding `O=C(Cl)c1ccc2occc2c1`, the melting point was in the range of 67 to 68 °C. The result for `CC(=O)OC1(C(C)=O)CCC2(C)C(CCC3C4CCCC4(C)CCC32)C1` (stereo not drawn) reads 164 to 166 °C; that for `CC(C)(C)OC(=O)N1CCN(c2ccc(C=O)cc2)CC1`, 118 to 119 °C.

Compound `O=C(C(=O)c1cc(Br)ccc1O)c1cc(Br)ccc1O` had a melting point of 212 °C.

On to `O=C(O)C1(C2=CCCCC2)CCCCC1`, for which the melting point was 79 °C.

`CC1NC2CCCCCCCC(=O)OC3CCC(CCCCCCCC(=O)OC1CC2)NC3C` (stereo not drawn) displayed a melting point of 121 °C. The result for `ON=Cc1ccc(OC(F)(F)F)cc1` reads 41 °C; that for `Nc1cccc(-c2cccc(N)c2)c1`, 93.5 °C; that for `CCOC(=O)C(=O)C(C#N)c1ccccc1` (stereo not drawn), 127 °C. The result for `CC12CCC3C(CCC4CC(O)CCC43C)C1CCC2O` (stereo not drawn) reads 167 °C.

In turn, `COC(=O)c1cccc(C#N)c1` showed a melting point of 65 °C.

`CC(C)(C)OC(=O)NCCCC(=O)O` had a melting point of 55 °C. The result for `CC(C)(C)c1ccc(-c2cc(N)c(C(N)=O)s2)cc1` reads 244 to 248 °C.

In turn, `c1ccc(-c2cccs2)nc1` registered a melting point of 63 °C.

Take `O=C1C=C2C=C[C@@H]3C[C@@]2(O1)[C@H]1CCCCN31`: the melting point was 142 °C. `CCCCOC(=O)C(C)O` (stereo not drawn) showed a melting point of -28 °C. As to `CC(C)C(=O)NN`, the melting point lay within 97 to 100 °C. Under `CCCCCCCCCCCCCCCCCCCCCCCCCCCCCC(=O)O` stands 93.6 °C; under `CC1(C)C(C=C(Br)Br)C1C(=O)OC(C#N)c1cccc(Oc2ccccc2)c1` (stereo not drawn), 100 °C.

`Cc1cccc2c1sc1c(C)cccc12` yielded a melting point of 147 to 153 °C. In turn, `COC(=O)c1c(OC)c(OC)c(OC)c(C(=O)OC)c1C(=O)OC` gave a melting point of 84 to 85 °C. `N#C/C(=N\Nc1cccc(O)c1)c1nc2ccccc2s1` gave a melting point of 175 °C. On to `COc1ccccc1C1(C)CCc2oc3c(Br)cc(Br)cc3c2-c2oc(C)cc21` (stereo not drawn), for which the melting point turned out to be 194 °C.

For `Cc1ccc(F)cc1C#N`, the melting point fell in the range of 43 to 45 °C.

Compound `O=C(NC(CO)Cc1ccccc1)OCc1ccccc1` (stereo not drawn) gave a melting point of 94 °C. In turn, `CC1(C)CCC2(C(=O)O)C(O)CC3(C)C(=CCC4C5(C)CCC(O)C(C)(C=O)C5CCC43C)C2C1` (stereo not drawn) yielded a melting point of 294 °C. The result for `Nc1c(Br)cc(Cl)cc1Br` reads 93 to 95 °C; that for `CCOC(=O)c1cnc(N)nc1C`, 224 to 225 °C; that for `O=C(NC(CO)C(=O)O)OCc1ccccc1` (racemic), 122 to 126 °C.

`O=c1[nH]c2ccccc2n1C1CCNCC1` displayed a melting point of 183 to 185 °C. In turn, `Cc1cc(C)c2c(c1C)CC2` returned a melting point of 20 to 28 °C.

Consider `CCC(C)(C)OC(N)=O`, for which the melting point was 86 °C. With `C=CCC#N`, the melting point was -87 °C. With `Cc1ccccc1NN=C1C(=O)NC(=S)NC1=O`, the melting point worked out at 242 °C. The compound `O=[N+]([O-])c1ccc(S(=O)(=O)F)cc1` had a melting point of 76 to 80 °C. `O=[N+]([O-])CCc1ccccc1` gave a melting point of -23 °C. `CC(=O)OC1C(c2ccc(=O)oc2)C2(C)CCC3C(CCC4(O)CC(O)CCC34C)C23OC13` (stereo not drawn): the melting point was 260 °C. As to `O=S(=O)(Cl)c1occc1C1OCCO1`, the melting point lay in the range of 34 to 39 °C. In turn, `O=Cc1ccc(-c2cccc([N+](=O)[O-])c2)o1` registered a melting point of 156 to 158 °C. `Cc1ccc(C)c(C)n1`: the melting point was determined as 37 °C.

`C=COC(=O)CC` returned a melting point of -80 °C.

For the compound `CC(C)C(O)C1(C)CCC(C(=O)O)C(C)(C)O1` (stereo not drawn), the melting point was 115 °C. The compound `N#Cc1c(Cl)c(Cl)nc(Cl)c1Cl` yielded a melting point of 139 to 142 °C.

The compound `CCCCCCC(=O)CCCCCC` returned a melting point of 33 °C. The result for `Cc1nc(C#N)cs1` reads 58 °C; that for `O=C(CCl)N1CCOCC1`, 37 °C. The result for `ClCCCCCCCCCCCl` reads 15.6 °C. On to `CC(=O)C12CC3CC(CC(C3)C1)C2`, for which the melting point was 53 to 55 °C. The result for `O=S(=O)(Cl)c1ccc(CBr)cc1` reads 74 °C; that for `CCCCCCCCCC(=O)CCCCCCCCC`, 65.5 °C. The result for `COc1ccc2nc(C#N)sc2c1` reads 128 to 131 °C; that for `O=C(O)c1ccc2nonc2c1`, 157 to 158 °C; that for `O=C(CBr)C(c1ccccc1)c1ccccc1`, 64 to 66 °C. The compound `CC12CCC(C1(C)C)C(CCCc1ccccc1)(C1(CCCc3ccccc3)C(=O)C3(C)CCC1C3(C)C)C2=O` (stereo not drawn) returned a melting point of 250 °C. In turn, `CN1CCOc2cc(C#N)cnc21` displayed a melting point of 107 to 109 °C.

In turn, `COc1ccc(C(F)(F)F)cc1N` had a melting point of 58 °C. On to `COc1cc2cc[nH]c2cc1OC`, for which the melting point turned out to be 157 °C. The compound `CC(=O)c1c(C)c([N+](=O)[O-])c(C(C)(C)C)c([N+](=O)[O-])c1C` had a melting point of 136 °C.

As for `C/C=C/C(=O)O`, the melting point is 72 °C. `Cc1ccc2ccc3ccc(C)cc3c2c1` showed a melting point of 145 °C. Under `Brc1nc(Br)c(Br)c(Br)c1Br` stands 206 to 208 °C. `COC(=O)c1scc(S(=O)(=O)C(C)C)c1N`: the melting point lay in the range of 139 to 143 °C. Under `CCC(C)(O)CNC1C2CCC(C)(C1O)C2(C)C` (stereo not drawn) stands 119 °C; under `CCOC(N)=S`, 41 °C.

`CON(C(=O)c1cc(C)oc1C)C1CCCCC1`: the melting point came to 33 °C. For the compound `Cc1cc(NN)nc(C)n1`, the melting point was in the range of 189 to 190 °C.

`CCOc1ccc(N=Nc2ccc(OCC)cc2)cc1`: the melting point came to 162 °C. On to `COc1cc(N)c(C(=O)O)cc1OC`, for which the melting point is 155 to 160 °C. The compound `Cc1cc(-c2ccccc2)n[nH]1` came in with a melting point of 127 to 128 °C. The compound `O=[N+]([O-])c1cc([N+](=O)[O-])c(C=Nc2ccccc2)cc1C=Nc1ccccc1` had a melting point of 165 °C. Take `CN(CC(=O)N1CCOCC1)Cc1c(Cl)cccc1NC(=O)c1ccccc1`: the melting point turned out to be 123 °C. The compound `O=C(O)CCCCCCCO` had a melting point of 51 to 57 °C. Under `CC(C)N(C(=O)C(C(F)(F)F)C(F)(F)F)C(C)C` stands 53 °C; under `O=C(O)CN(CCOCCOCCN(CC(=O)O)CC(=O)O)CC(=O)O`, 240 to 245 °C; under `FC(F)(F)c1cccc(C(c2ccccc2)(c2ccccc2)n2cncn2)c1`, 132 °C. On to `CCCCCCCCOc1ccc(NC(=O)c2ccc(OC)cc2)cc1`, for which the melting point fell in the range of 152 to 154 °C. For the compound `CC1CCCCC1O` (stereo not drawn), the melting point is 7 °C.

`CCOP(=S)(OCC)Oc1ccc(=O)n(-c2ccccc2)n1`: the melting point is 56.2 °C. `Oc1c(Br)cc(Br)cc1-c1cc(Br)cc(Br)c1O`: the melting point amounted to 205 °C.

As to `CCCCCCCOC(=O)c1ccc(O)cc1`, the melting point was 48 °C.

In turn, `O=C1CN(C(=O)OCc2ccccc2)CCN1` registered a melting point of 120 °C. Compound `Cc1cccc2c1/C(=N/Nc1ccc([N+](=O)[O-])cc1[N+](=O)[O-])C2` displayed a melting point of 228 °C. Under `CCOC(=O)CCC(=O)c1ccc(OC)cc1` stands 51 °C. Regarding `CCOC(=O)c1cc(C)nc(Cl)n1`, the melting point fell in the range of 56.5 to 59 °C. Take `CCCCCCC(=O)CC`: the melting point is -8 °C. The result for `CCCCCCCCCCCCCCCCOc1ccc(N)cc1` reads 60 °C. `CCOC(CCl)OCC` showed a melting point of -45 °C.

For `O=C=Nc1c(Br)cc(F)cc1Br`, the melting point came to 44 °C. As for `CN=NC`, the melting point was -78 °C.

The compound `CCCCCCOCCCCCC` showed a melting point of -43 °C. With `CCOC(=O)c1cnn(-c2ccc(Cl)cc2)c1C(F)(F)F`, the melting point is 50 to 52 °C. Consider `FC(F)C(F)(F)Cl`, for which the melting point is -117 °C. Compound `Cc1csc2ncnc(Cl)c12` came in with a melting point of 137 to 138 °C. Under `Cc1ccc(S(=O)(=O)Nc2cc(N)c([N+](=O)[O-])cc2NS(=O)(=O)c2ccc(C)cc2)cc1` stands 165 °C. Under `Clc1cc(C(Cl)Cl)c(Cl)cc1C(Cl)Cl` stands 72 °C; under `CC(=O)Oc1cc2c(cc1Cl)C1(OC(=O)c3ccccc31)c1cc(Cl)c(OC(C)=O)cc1O2`, 239 to 246 °C. With `C(=C(c1ccccc1)c1ccccc1)=C(c1ccccc1)c1ccccc1`, the melting point was found to be 140 °C. Take `Clc1cc2oc3c(Cl)cc(Cl)c(Cl)c3c2cc1Cl`: the melting point is 237 °C.

In turn, `N#Cc1ccccc1CN1CCOCC1` had a melting point of 49 to 50 °C.

The melting point is the temperature, or range, at which the solid turns liquid.
